In publication PMC10056443, “Derivatives of Amaryllidaceae Alkaloid Ambelline as Selective Inhibitors of Hepatic Stage of Plasmodium berghei Infection In Vitro” (Pharmaceutics, 2023):

How the values were obtained:
[1] = system: hepatic stage of P. berghei; assay: In vitro activity against P. berghei hepatic stages (luciferase-expressing sporozoites in Huh-7 cells, bioluminescence); format: cell-based, Plasmodium berghei; conditions: Plasmodium berghei, Huh-7, 48 h; for activity at 1 µM / activity at 10 µM: DMSO = 100, read-out: INFECTION Ø screening
Method: Activity against the hepatic stage of P. berghei infection was assessed using the human hepatoma cell line Huh-7 (deposited at the Japanese Collection of Research Bioresources under JCRB0403). The protocol was previously comprehensively described by Prudêncio et al. and by Ploemen et al.. […] Cells were seeded in 96-well plates at a density of 1 × 10^4 cells per well in 100 µL of culture medium and incubated at 37 °C with 5% CO2 for approximately 18 h. […] The culture medium was substituted by infection medium with diluted compounds 1 hour in advance of infection. Luciferase-expressing P. berghei sporozoites (PbA-LuciGFPcon spz) were freshly obtained through the dissection of salivary glands from infected female Anopheles stephensi mosquitoes. Sporozoites were added to the cells at 1:1 ratio, i.e., 1 × 10^4 sporozoites were added per well, and then subjected to centrifugation at 1800× g for 5 min. The plate was then incubated for 46 h at 37 °C with 5% CO2, at which time Huh-7 cell confluency was indirectly assessed by the alamarBlue assay (Invitrogen, Waltham, MA, USA), as reported in the manufacturer’s protocol. Parasite load was assessed 48 h post-infection by a bioluminescence assay, as reported by the manufacturer (Biotium, Fremont, CA, USA). GraphPad Prism 8 (GraphPad Software, Inc., La Jolla, CA, USA) was used to obtain IC50 values using nonlinear regression analysis to fit the dose-response curves normalized results.

[2] = system: Huh-7 cell line; assay: Huh-7 cell confluency by alamarBlue assay during hepatic-stage test; format: cell-based
Method: Activity against the hepatic stage of P. berghei infection was assessed using the human hepatoma cell line Huh-7 (deposited at the Japanese Collection of Research Bioresources under JCRB0403). The protocol was previously comprehensively described by Prudêncio et al. and by Ploemen et al.. Briefly, cell culture medium consisted of 1640 RPMI medium supplemented with 10% v/v fetal calf serum, 1% v/v L-glutamine, 1% v/v nonessential amino acids, 1% v/v penicillin/streptomycin, and 10 mM HEPES, pH 7. Cells were seeded in 96-well plates at a density of 1 × 10^4 cells per well in 100 µL of culture medium and incubated at 37 °C with 5% CO2 for approximately 18 h. […] The culture medium was substituted by infection medium with diluted compounds 1 hour in advance of infection. Luciferase-expressing P. berghei sporozoites (PbA-LuciGFPcon spz) were freshly obtained through the dissection of salivary glands from infected female Anopheles stephensi mosquitoes. Sporozoites were added to the cells at 1:1 ratio, i.e., 1 × 10^4 sporozoites were added per well, and then subjected to centrifugation at 1800× g for 5 min. The plate was then incubated for 46 h at 37 °C with 5% CO2, at which time Huh-7 cell confluency was indirectly assessed by the alamarBlue assay (Invitrogen, Waltham, MA, USA), as reported in the manufacturer’s protocol. Parasite load was assessed 48 h post-infection by a bioluminescence assay, as reported by the manufacturer (Biotium, Fremont, CA, USA). GraphPad Prism 8 (GraphPad Software, Inc., La Jolla, CA, USA) was used to obtain IC50 values using nonlinear regression analysis to fit the dose-response curves normalized results.

[3] = at 1 μM, DMSO = 100, in % (unit assumed)
[4] = at 10 μM, DMSO = 100, in % (unit assumed)

COC1C=CC23c4cc5c(cc4CN(CC2OC(=O)c2ccc([N+](=O)[O-])cc2)C3C1)OCO5 (stereo not drawn) [29k, 11-O-(4-nitrobenzoyl)haemanthamine]
activity at 1 µM [1]: 63.6% | activity at 10 µM [1]: 71% | CELL CONFLUENCY Ø screening [2, 3]: 104.8 | CELL CONFLUENCY Ø screening [2, 4]: 91.29

COc1ccc(C(=O)OC2CN3Cc4cc5c(cc4C24C=CC(OC)CC34)OCO5)cc1OC (stereo not drawn) [29h, 11-O-(3,4-dimethoxybenzoyl)haemanthamine]
activity at 1 µM [1]: 90.4% | activity at 10 µM [1]: 46% | CELL CONFLUENCY Ø screening ([2]; human, 46 h, 1 µM, pH 7): 101.7 | CELL CONFLUENCY Ø screening ([2]; human, 46 h, 10 µM, pH 7): 100.3

COc1ccccc1C(=O)OC1CN2Cc3cc4c(cc3C13C=CC(OC)CC23)OCO4 (stereo not drawn) [29e, 11-O-(2-methoxybenzoyl)haemanthamine]
activity at 1 µM [1]: 67.6% | activity at 10 µM [1]: 28.8% | CELL CONFLUENCY Ø screening ([2]; human, 46 h, 1 µM, pH 7): 124.9 | CELL CONFLUENCY Ø screening ([2]; human, 46 h, 10 µM, pH 7): 167.5

COc1cc(NC(C)CCCN)c2ncccc2c1 (stereo not drawn) [Primaquine, reference compound]
IC50 ([1]; read-out: IC50 P. berghei): 5.74 ± 0.86 µM

COC1C=CC23c4cc5c(cc4CN(CC2OC(=O)c2cccc([N+](=O)[O-])c2)C3C1)OCO5 (stereo not drawn) [29j, 11-O-(3-nitrobenzoyl)haemanthamine]
activity at 1 µM [1]: 78.2% | activity at 10 µM [1]: 48.5% | CELL CONFLUENCY Ø screening ([2]; human, 46 h, 1 µM, pH 7): 100.8 | CELL CONFLUENCY Ø screening ([2]; human, 46 h, 10 µM, pH 7): 94.5

COC1C=CC23c4cc5c(cc4CN(CC2OC(=O)C(C)C)C3C1)OCO5 (stereo not drawn) [29b, 11-O-isobutanoylhaemanthamine]
activity at 1 µM [1]: 71.4% | activity at 10 µM [1]: 70.6% | CELL CONFLUENCY Ø screening [2, 3]: 106.7 | CELL CONFLUENCY Ø screening [2, 4]: 111.9

COc1cc(OC)cc(C(=O)OC2CN3Cc4cc5c(cc4C24C=CC(OC)CC34)OCO5)c1 (stereo not drawn) [29i, 11-O-(3,5-dimethoxybenzoyl)haemanthamine]
activity at 1 µM [1]: 64% | activity at 10 µM [1]: 27.5% | CELL CONFLUENCY Ø screening ([2]; human, 46 h, 1 µM, pH 7): 123.1 | CELL CONFLUENCY Ø screening ([2]; human, 46 h, 10 µM, pH 7): 120.8

COc1cccc(C(=O)OC2CN3Cc4cc5c(cc4C24C=CC(OC)CC34)OCO5)c1 (stereo not drawn) [29f, 11-O-(3-methoxybenzoyl)haemanthamine]
activity at 1 µM [1]: 76.1% | activity at 10 µM [1]: 29.8% | CELL CONFLUENCY Ø screening [2, 3]: 130.9 | CELL CONFLUENCY Ø screening [2, 4]: 134.6

COC1C=CC23c4cc5c(cc4CN(CC2OC(=O)c2cccc(C)c2)C3C1)OCO5 (stereo not drawn) [29c, 11-O-(3-methylbenzoyl)haemanthamine]
activity at 1 µM [1]: 96.8% | activity at 10 µM [1]: 28.3% | CELL CONFLUENCY Ø screening ([2]; human, 46 h, 1 µM, pH 7): 124.3 | CELL CONFLUENCY Ø screening ([2]; human, 46 h, 10 µM, pH 7): 135.7

CCC(=O)OC1CN2Cc3cc4c(cc3C13C=CC(OC)CC23)OCO4 (stereo not drawn) [29a, 11-O-propionylhaemanthamine]
activity at 1 µM [1]: 87.6% | activity at 10 µM [1]: 71.9% | CELL CONFLUENCY Ø screening [2, 3]: 95.58 | CELL CONFLUENCY Ø screening [2, 4]: 90.95

COc1ccc(C(=O)OC2CN3Cc4cc5c(cc4C24C=CC(OC)CC34)OCO5)cc1 (stereo not drawn) [29g, 11-O-(4-methoxybenzoyl)haemanthamine]
activity at 1 µM [1]: 49.1% | activity at 10 µM [1]: 42.6% | CELL CONFLUENCY Ø screening ([2]; human, 46 h, 1 µM, pH 7): 95.31 | CELL CONFLUENCY Ø screening ([2]; human, 46 h, 10 µM, pH 7): 88.51

COC1C=CC23c4cc5c(cc4CN(CC2OC(=O)c2ccc(C)cc2)C3C1)OCO5 (stereo not drawn) [29d, 11-O-(4-methylbenzoyl)haemanthamine]
activity at 1 µM [1]: 47.8% | activity at 10 µM [1]: 29% | CELL CONFLUENCY Ø screening ([2]; human, 46 h, 1 µM, pH 7): 120.6 | CELL CONFLUENCY Ø screening ([2]; human, 46 h, 10 µM, pH 7): 113.7
